According to US11591299B1, “Prodrug compound of levosimendan, preparation method and use thereof” (Beijing Chenguang Tongchuang Pharmaceutical Research …, priority 2022, dated 2023):

Columns and labels:
[1] = general statement, no test described; cited from earlier work
[2] = Solubility determination in water (Chinese Pharmacopoeia 2020 solubility test method); format: physicochemical; conditions: 25° C.±2° C., dissolution observed within 30 minutes
Experimental: The determination is based on the solubility test method in General Example 15 of Part IV in “Chinese Pharmacopoeia (2020 Edition)”: the test product was ground into fine powders, and water at about 25° C. is added in a certain water bath at 25° C.±2° C., and shaken vigorously for 30 seconds every 5 minutes, to observe the dissolution within 30 minutes. If there are no visible solute particles, it is regarded as complete dissolution.

[3] = Pharmacokinetic study: metabolism of prodrug and conversion to levosimendan in plasma after in vivo administration; conditions: for ranking of metabolic conversion rates among the 13 prodrug molecules: in plasma within 10 minutes
Experimental: FIGS. 4-6 are the change profile of the content of compound TCX1001-031 itself in plasma after administration in the pharmacokinetic study, the change profile of the content of released levosimendan, and the pharmacokinetic metabolic conversion rate, respectively.
The conversion rates of these compounds to levosimendan in plasma within 10 minutes are approximately 30-45%.

SMILES | solubility in water [2] | other results
C[C@@H]1CC(=O)NN=C1c1ccc(NN=C(C#N)C#N)cc1 [Levosimendan, (R)-[[4-(1,4,5,6-tetrahydro-4-methyl-6-oxo-pyridazin-3-yl)phenyl]-hydrazono]-malononitrile] | – | solubility of levosimendan in most organic solvents [1]: insoluble or extremely poorly soluble; solubility of levosimendan in water [1]: insoluble
C[C@@H]1CC(=O)N(COC(=O)c2cccnc2)N=C1c1ccc(NN=C(C#N)C#N)cc1 [TCX-1001-029, (R)-(3-((4-(2-(dicyanomethylene)hydrazino)phenyl)-4-methyl-6-oxo-5,6-dihydropyridazin-1(4H)-yl)methyl nicotinate] | [drawing 7] Rp = pyridin-3-yl Chemical name: (R)-(3-((4-(2- (dicyanomethylene)hydrazino)phenyl)- 4-methyl-6-oxo-5,6-dihydropyridazin- 1(4H)-yl)methyl nicotinate (TCX-1001-029) This product is extremely slightly soluble in water | ranking of metabolic conversion rates among the 13 prodrug molecules [3]: highest
C[C@@H]1CC(=O)N(COC(=O)CN(C)C)N=C1c1ccc(NN=C(C#N)C#N)cc1 [TCX-1001-030] | [drawing 6] Rp = N,N-dimethylaminomethyl Chemical name: (R)-(3-((4-(2- (dicyanomethylene)hydrazino)phenyl)- 4-methyl-6-oxo-5,6-dihydropyridazin- 1(4H)-yl)m ethyl N,N- dimethylglycinate (TCX-1001-030) This product is slightly soluble in water | ranking of metabolic conversion rates among the 13 prodrug molecules [3]: highest
C[C@@H]1CC(=O)N(COC(=O)c2ccc(CN3CCOCC3)cc2)N=C1c1ccc(NN=C(C#N)C#N)cc1 [TCX-1001-031] | [drawing 4] Rp = 4-(morpholin-1-ylmethyl)phenyl Chemical name: (R)-(3-((4-(2- (dicyanomethylene)hydrazino)phenyl)- 4-methyl-6-oxo-5,6-dihydropyridazin- 1(4H)-yl)methyl 4-(morpholin-1-ylmethyl)benzoate (TCX-1001-031) This product is sparingly soluble in water | ranking of metabolic conversion rates among the 13 prodrug molecules [3]: highest; time to complete metabolism of the prodrug (content drops to 0) ([3]; plasma, after in vivo administration): ≤ 1 min
C[C@@H]1CC(=O)N(COC(=O)CN)N=C1c1ccc(NN=C(C#N)C#N)cc1 [TCX-1001-032, (R)-(3-((4-(2-(dicyanomethylene)hydrazino)phenyl)-4-methyl-6-oxo-5,6-dihydropyridazin-1(4H)-yl)methyl glycinate] | [drawing 9] Rp = aminomethyl Chemical name: (R)-(3-((4-(2- (dicyanomethylene)hydrazino)phenyl)- 4-methyl-6-oxo-5,6-dihydropyridazin- 1(4H)-yl)m ethyl glycinate (TCX-1001-032) This product is slightly soluble in water | –
C[C@@H]1CC(=O)N(COC(=O)c2ccc(CN3CCN(C)CC3)cc2)N=C1c1ccc(NN=C(C#N)C#N)cc1 [TCX-1001-033] | [drawing 5] Rp = 4-(4-methylpiperazin-1-ylmethyl)phenyl Chemical name: (R)-(3-((4-(2- (dicyanomethylene)hydrazino)phenyl)- 4-methyl-6-oxo-5,6-dihydropyridazin- 1(4H)-yl)methyl 4-((4- methylpiperazin-1-yl)methyl)benzoate (TCX-1001-033) This product is sparingly soluble in water | ranking of metabolic conversion rates among the 13 prodrug molecules [3]: highest
C[C@@H]1CC(=O)N(COC(=O)CCC(=O)O)N=C1c1ccc(NN=C(C#N)C#N)cc1 [TCX-1001-034] | [drawing 13] Rp = carboxyl ethyl Chemical name: (R)-(3-((4-(2- (dicyanomethylene)hydrazino)phenyl)- 4-methyl-6-oxo-5,6-dihydropyridazin- 1(4H)-yl)methyl 3-carboxylpropionate (TCX-1001-034) This product is slightly soluble in water | –
C[C@@H]1CC(=O)N(COC(=O)OCC(=O)O)N=C1c1ccc(NN=C(C#N)C#N)cc1 [TCX-1001-035, (R)-(3-((4-(2-(dicyanomethylene)hydrazino)phenyl)-4-methyl-6-oxo-5,6-dihydropyridazin-1(4H)-yl)methyl carboxylmethyloxyformate] | [drawing 14] Rp = carboxylmethoxy Chemical name: (R)-(3-((4-(2- (dicyanomethylene)hydrazino)phenyl)- 4-methyl-6-oxo-5,6-dihydropyridazin- 1(4H)-yl)methyl carboxylmethyloxyformate (TCX-1001-035) This product is slightly soluble in water | –
C[C@@H]1CC(=O)N(COC(=O)CC(=O)NCc2ccncc2)N=C1c1ccc(NN=C(C#N)C#N)cc1 [TCX-1001-036] | [drawing 10] Rp = pyridin-4-ylmethylaminoformylmethyl Chemical name: (R)-(3-((4-(2- (dicyanomethylene)hydrazino)phenyl)- 4-methyl-6-oxo-5,6-dihydropyridazin- 1(4H)-yl)methyl 3-oxo-3-((pyridin-4-ylmethyl)amino)propionate (TCX-1001-036) This product is extremely slightly soluble in water | –
C[C@@H]1CC(=O)N(COC(=O)N2CCC(N3CCCCC3)CC2)N=C1c1ccc(NN=C(C#N)C#N)cc1 [TCX-1001-037] | [drawing 8] Rp = 4-(piperidin-1-yl)-piperidin-1-yl Chemical name: (R)-(3-((4-(2- (dicyanomethylene)hydrazino)phenyl)- 4-methyl-6-oxo-5,6-dihydropyridazin- 1(4H)-yl)methyl 4-(piperidin-1-yl)piperidin-1-ylformate (TCX-1001-037) This product is sparingly soluble in water | –
C[C@@H]1CC(=O)N(COC(=O)COS(=O)(=O)O)N=C1c1ccc(NN=C(C#N)C#N)cc1 [TCX-1001-038, (R)-(3-((4-(2-(dicyanomethylene)hydrazino)phenyl)-4-methyl-6-oxo-5,6-dihydropyridazin-1(4H)-yl)methyl sulfonyloxyacetate] | [drawing 16] Rp = sulfonyloxymethyl Chemical name: (R)-(3-((4-(2- (dicyanomethylene)hydrazino)phenyl)- 4-methyl-6-oxo-5,6-dihydropyridazin- 1(4H)-yl)methyl sulfonyloxyacetate (TCX-1001-038) This product is extremely soluble in water | –
C[C@@H]1CC(=O)N(COC(=O)CN2CCCC2)N=C1c1ccc(NN=C(C#N)C#N)cc1 [TCX-1001-039] | [drawing 11] Rp = pyrrolidin-1-ylmethyl Chemical name: (R)-(3-((4-(2- (dicyanomethylene)hydrazino)phenyl)- 4-methyl-6-oxo-5,6-dihydropyridazin- 1(4H)-yl)methyl 2-pyrrolidin-1-yl- acetate (TCX-1001-03 9) This product is slightly soluble in water | –
C[C@@H]1CC(=O)N(COC(=O)COP(=O)(O)O)N=C1c1ccc(NN=C(C#N)C#N)cc1 [TCX-1001-040, (R)-(3-((4-(2-(dicyanomethylene)hydrazino)phenyl)-4-methyl-6-oxo-5,6-dihydropyridazin-1(4H)-yl)methyl phosphoryloxyacetate] | [drawing 15] Rp = phosphoryloxymethyl Chemical name: (R)-(3-((4-(2- (dicyanomethylene)hydrazino)phenyl)- 4-methyl-6-oxo-5,6-dihydropyridazin- 1(4H)-yl)methyl phosphoryloxyacetate (TCX-1001-040) This product is extremely soluble in water | –
C[C@@H]1CC(=O)N(COC(=O)CC(=O)O)N=C1c1ccc(NN=C(C#N)C#N)cc1 [TCX-1001-041, (R)-(3-((4-(2-(dicyanomethylene)hydrazino)phenyl)-4-methyl-6-oxo-5,6-dihydropyridazin-1(4H)-yl)methyl 2-carboxyl acetate] | [drawing 12] Rp = carboxylmethyl Chemical name: (R)-(3-((4-(2- (dicyanomethylene)hydrazino)phenyl)- 4-methyl-6-oxo-5,6-dihydropyridazin- 1(4H)-yl)methyl 2-carboxylacetate (TCX-1001-041) This product is slightly soluble in water | –
